Results from PubChem BioAssay (NCI).
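Test compounds were applied to cells in 96-well plates for 48 hours at 5 doses. The concentration for full growth arrest is given as TGI.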

Key:
Assay in all cases: inhibition of tumour cell growth, NCI panel, 48 h
NCI-H23 lung = test system: NCI-H23 lung
MDA-MB-435 = test system: MDA-MB-435
K-562 leukemia = test system: K-562 leukemia
HCT-116 colon = test system: HCT-116 colon
BT-549 breast = test system: BT-549 breast
NCI-H226 lung = test system: NCI-H226 lung
HCC-2998 colon = test system: HCC-2998 colon
MCF7 breast = test system: MCF7 breast
SNB-75 CNS = test system: SNB-75 CNS
TK-10 renal = test system: TK-10 renal
SN12C renal = test system: SN12C renal
RPMI-8226 leukemia = test system: RPMI-8226 leukemia
MDA-MB-231 breast = test system: MDA-MB-231 breast
NCI-H460 lung = test system: NCI-H460 lung
SNB-19 CNS = test system: SNB-19 CNS
DU-145 prostate = test system: DU-145 prostate
SK-MEL-28 melanoma = test system: SK-MEL-28 melanoma
SW-620 colon = test system: SW-620 colon
A549 NSCLC = test system: A549 NSCLC
MALME-3M melanoma = test system: MALME-3M melanoma
T-47D breast = test system: T-47D breast
OVCAR-4 ovarian = test system: OVCAR-4 ovarian
HS 578T breast = test system: HS 578T breast
HCT-15 colon = test system: HCT-15 colon
KM12 colon = test system: KM12 colon
M14 melanoma = test system: M14 melanoma
UO-31 renal = test system: UO-31 renal
OVCAR-3 ovarian = test system: OVCAR-3 ovarian
MOLT-4 leukemia = test system: MOLT-4 leukemia
A498 renal = test system: A498 renal
OVCAR-8 ovarian = test system: OVCAR-8 ovarian
HT29 colon = test system: HT29 colon
UACC-62 melanoma = test system: UACC-62 melanoma
U251 CNS = test system: U251 CNS
OVCAR-5 ovarian = test system: OVCAR-5 ovarian
HOP-62 NSCLC = test system: HOP-62 NSCLC
RXF 393 renal = test system: RXF 393 renal
SK-MEL-5 melanoma = test system: SK-MEL-5 melanoma
HOP-92 NSCLC = test system: HOP-92 NSCLC
SF-295 CNS = test system: SF-295 CNS
SK-OV-3 ovarian = test system: SK-OV-3 ovarian
SK-MEL-2 melanoma = test system: SK-MEL-2 melanoma
IGROV1 ovarian = test system: IGROV1 ovarian
UACC-257 melanoma = test system: UACC-257 melanoma
PC-3 prostate = test system: PC-3 prostate
NCI-H522 lung = test system: NCI-H522 lung
EKVX NSCLC = test system: EKVX NSCLC
MDA-N = test system: MDA-N
NCI/ADR-RES ovarian = test system: NCI/ADR-RES ovarian
SF-268 CNS = test system: SF-268 CNS
ACHN renal = test system: ACHN renal
CAKI-1 renal = test system: CAKI-1 renal
SF-539 CNS = test system: SF-539 CNS
CCRF-CEM leukemia = test system: CCRF-CEM leukemia
LOX IMVI melanoma = test system: LOX IMVI melanoma
786-0 renal = test system: 786-0 renal
COLO 205 colon = test system: COLO 205 colon

## CC(=O)Oc1ccccc1/C=C/C(=O)/C=C/c1ccccc1OC(C)=O
NCI-H23 lung
  TGI: 4.61 µM
MDA-MB-435
  TGI: 5.37 µM
K-562 leukemia
  TGI: 4.53 µM
HCT-116 colon
  TGI: 0.973 µM
BT-549 breast
  TGI: 3.97 µM
NCI-H226 lung
  TGI: 3.89 µM
HCC-2998 colon
  TGI: 4.18 µM
MCF7 breast
  TGI: 4.99 µM
SNB-75 CNS
  TGI: 5.95 µM
TK-10 renal
  TGI: 10.6 µM
SN12C renal
  TGI: 4.07 µM
RPMI-8226 leukemia
  TGI: 1.84 µM
MDA-MB-231 breast
  TGI: 6.08 µM
NCI-H460 lung
  TGI: 6.48 µM
SNB-19 CNS
  TGI: 6.53 µM
DU-145 prostate
  TGI: 9.59 µM
SK-MEL-28 melanoma
  TGI: 4.09 µM
SW-620 colon
  TGI: 2.32 µM
A549 NSCLC
  TGI: 6.37 µM
MALME-3M melanoma
  TGI: 6.11 µM
T-47D breast
  TGI: 34.9 µM
OVCAR-4 ovarian
  TGI: 10.2 µM
HS 578T breast
  TGI: > 51.9 µM
HCT-15 colon
  TGI: 9.34 µM
KM12 colon
  TGI: 3.06 µM
M14 melanoma
  TGI: 4.45 µM
UO-31 renal
  TGI: 3.48 µM
OVCAR-3 ovarian
  TGI: 4.23 µM
MOLT-4 leukemia
  TGI: 5.71 µM
A498 renal
  TGI: 4.01 µM
OVCAR-8 ovarian
  TGI: 5.12 µM
HT29 colon
  TGI: 4.25 µM
UACC-62 melanoma
  TGI: 3.48 µM
U251 CNS
  TGI: 3.18 µM
OVCAR-5 ovarian
  TGI: 4.35 µM
HOP-62 NSCLC
  TGI: 5.32 µM
RXF 393 renal
  TGI: 1.65 µM
SK-MEL-5 melanoma
  TGI: 3.45 µM
HOP-92 NSCLC
  TGI: 10.7 µM
SF-295 CNS
  TGI: 6.11 µM
SK-OV-3 ovarian
  TGI: 13.6 µM
SK-MEL-2 melanoma
  TGI: 21.1 µM
IGROV1 ovarian
  TGI: 4.52 µM
UACC-257 melanoma
  TGI: 2.96 µM
PC-3 prostate
  TGI: 5.04 µM
NCI-H522 lung
  TGI: 4.69 µM
EKVX NSCLC
  TGI: 9.9 µM
MDA-N
  TGI: 6.67 µM
NCI/ADR-RES ovarian
  TGI: 7.39 µM
SF-268 CNS
  TGI: 8.17 µM
ACHN renal
  TGI: 3.62 µM
CAKI-1 renal
  TGI: 10.4 µM
SF-539 CNS
  TGI: 3.33 µM
CCRF-CEM leukemia
  TGI: 12.6 µM
LOX IMVI melanoma
  TGI: 2.01 µM
786-0 renal
  TGI: 3.71 µM
COLO 205 colon
  TGI: 4.06 µM
